The source of these data is PubChem BioAssay (NCI).

Test systems include A498 renal; HCC-2998 colon; LOX IMVI melanoma; MALME-3M melanoma; NCI-H23 lung; NCI-H460 lung; RXF 393 renal; SF-295 CNS; MDA-MB-435; PC-3 prostate.
Holding throughout (test): growth of human tumour cells (NCI), 48 h

“And” between values parts separate entries of the source, which are not always exact repeats. Equal values may be shown once.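 Exposure lasted 48 hours, with cells grown in 96-well plates and compounds tested at five concentrations. GI50 marks 50% less growth. TGI: total growth inhibition.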

Regarding `O=[N+]([O-])c1ccccc1S(=O)c1ccccc1` (centres undefined), the TGI in the test on A498 renal, in the test on HCC-2998 colon, in the test on LOX IMVI melanoma, in the test with MALME-3M melanoma, with NCI-H23 lung and in the test with NCI-H460 lung was over 100 µM each time. Further, the TGI in the test on RXF 393 renal and in the test with SF-295 CNS was over 100 µM each time.
As to `O=C(O)CSc1n[nH]c(/C=C/c2ccccc2)n1`, the TGI with A498 renal, in the test with HCC-2998 colon, with LOX IMVI melanoma, in the test with MALME-3M melanoma, in the test on NCI-H23 lung and in the test with NCI-H460 lung was over 100 µM throughout. For the same compound, the TGI in the test with RXF 393 renal and with SF-295 CNS was over 100 µM throughout.
As to `COc1ccc2c(c1)C(=O)c1c-2c(NCCCN(C)C)nc2ccccc12`, the GI50 in the test with A498 renal is 11.3 µM; with HCC-2998 colon it was 2.48 µM; in the test on LOX IMVI melanoma, 1.44 µM; with MALME-3M melanoma, 3.86 µM; with MDA-MB-435 it was 4.05 µM; in the test on NCI-H23 lung, 2.78 µM. Moreover, the values for the GI50 in the test with NCI-H460 lung, in the test with PC-3 prostate and in the test with SF-295 CNS were 1.33 µM, 3.53 µM and 5.13 µM, respectively. Further, the TGI came to 23.8 µM in the test on A498 renal; 11.7 µM with HCC-2998 colon; 2.82 µM with LOX IMVI melanoma; 15.5 µM in the test on MALME-3M melanoma; 15.4 µM in the test with MDA-MB-435; 10 µM in the test on NCI-H23 lung. The TGI in the test on NCI-H460 lung came to 2.76 µM; with PC-3 prostate, 14.2 µM; in the test on SF-295 CNS, 18.9 µM.
Regarding `Cc1oc2ccccc2c(=O)c1Cn1nnc2ccccc21`, the TGI with A498 renal, with HCC-2998 colon, in the test with LOX IMVI melanoma, with MALME-3M melanoma, with MDA-MB-435 and in the test with NCI-H23 lung was over 100 µM in each case. The TGI in the test on NCI-H460 lung, in the test with PC-3 prostate and in the test with SF-295 CNS was over 100 µM throughout.
`COc1ccc(CNc2cc(OC)cc(OC)c2)cc1`: the GI50 in the test on A498 renal is > 100 µM and 14.7 µM; with SF-295 CNS, > 100 µM and 38.2 µM. Besides, the TGI with A498 renal, with HCC-2998 colon, in the test on LOX IMVI melanoma, in the test on MALME-3M melanoma, in the test with NCI-H23 lung and with NCI-H460 lung was over 100 µM each time. For the same compound, the TGI in the test with RXF 393 renal and in the test with SF-295 CNS was over 100 µM each time.
In the case of `COc1ccc(C2C3=C(NC(=O)C2C#N)c2ccc4ccccc4c2OCC3)cc1` (centres undefined), the GI50 in the test on A498 renal is 10.6 µM; in the test with LOX IMVI melanoma, 18.6 µM; with MALME-3M melanoma it was 34.9 µM; with MDA-MB-435 it was over 100 µM; in the test on NCI-H23 lung it was 87.1 µM; in the test with NCI-H460 lung, 66.2 µM. Moreover, the GI50 in the test on PC-3 prostate is 86.9 µM; in the test with RXF 393 renal, 16.3 µM; with SF-295 CNS, 27.4 µM. For the same compound, the TGI in the test on A498 renal was 64.6 µM; in the test on LOX IMVI melanoma, 37.5 µM; in the test with MALME-3M melanoma, 77.3 µM; in the test on MDA-MB-435, over 100 µM; in the test with NCI-H23 lung, over 100 µM; in the test on NCI-H460 lung, over 100 µM. The TGI in the test on PC-3 prostate was over 100 µM; in the test on RXF 393 renal, 48.9 µM; in the test with SF-295 CNS it was over 100 µM.
Take `COc1ccc(-c2cc3c4c(nc5ccccc5c4c2)CC(c2cc(OC)c(OC)c(OC)c2)O3)cc1` (centres undefined): the GI50 with A498 renal is 3.39 µM; in the test on HCC-2998 colon it was 4.32 µM; in the test with LOX IMVI melanoma, 1.92 µM; with MALME-3M melanoma, 1.32 µM; with MDA-MB-435, 2.99 µM; in the test on NCI-H23 lung, 3.75 µM. The GI50 is 1.46 µM in the test with NCI-H460 lung, 1.92 µM in the test with RXF 393 renal and 3.5 µM in the test with SF-295 CNS. Also, the TGI is 13.4 µM with A498 renal; over 100 µM in the test with HCC-2998 colon; 6.81 µM in the test with LOX IMVI melanoma; 3.87 µM with MALME-3M melanoma; 13.7 µM in the test on MDA-MB-435; 18.5 µM in the test with NCI-H23 lung. The TGI stood at 4.79 µM in the test on NCI-H460 lung, 4.65 µM in the test with RXF 393 renal and 12.5 µM in the test on SF-295 CNS.
On to `Cc1nc2sc(C(=O)Nc3cccc4ccccc34)c(N)c2cc1C(C)O` (centres undefined), for which the GI50 was 0.0756 µM with A498 renal; 0.647 µM with HCC-2998 colon; 0.264 µM in the test with LOX IMVI melanoma; 0.265 µM in the test with MALME-3M melanoma; 0.394 µM with NCI-H23 lung; 0.184 µM in the test with NCI-H460 lung. In addition, the GI50 with PC-3 prostate was 0.285 µM; in the test with RXF 393 renal it was 0.151 µM; in the test on SF-295 CNS, 0.171 µM. In addition, the TGI with A498 renal is 1.02 µM; with HCC-2998 colon, over 50 µM; in the test with LOX IMVI melanoma, over 50 µM; in the test with MALME-3M melanoma, over 50 µM; in the test with NCI-H23 lung, over 50 µM; with NCI-H460 lung, 9.91 µM. The TGI with PC-3 prostate, in the test with RXF 393 renal and with SF-295 CNS was over 50 µM each time.
Turning to `COc1cc2c(-c3nc4cc(Cl)c(F)cc4s3)cc(=O)oc2c(C)c1OC`, the GI50 with A498 renal was 1.5 µM; with HCC-2998 colon it was 2.4 µM; in the test with MALME-3M melanoma, 0.311 µM; in the test on MDA-MB-435, 1.77 µM; in the test with NCI-H460 lung, 2.11 µM; in the test on RXF 393 renal it was 1.55 µM. Moreover, the GI50 in the test with SF-295 CNS is 1.01 µM. Also, the TGI in the test with A498 renal was determined as 2.87 µM; with HCC-2998 colon, 4.29 µM; in the test with MALME-3M melanoma it was 1.14 µM; with MDA-MB-435, 3.76 µM; in the test with NCI-H460 lung, 4.61 µM; in the test on RXF 393 renal, 3.08 µM. Further, the TGI with SF-295 CNS was 2.34 µM.
For the compound `CN(C(=O)C1CCCCC1)c1ccccc1I(=O)=O`, the GI50 with A498 renal was 52.1 µM; in the test with HCC-2998 colon it was 70.3 µM; in the test with LOX IMVI melanoma it was 40.2 µM; in the test with MALME-3M melanoma, 14.6 µM; with MDA-MB-435, 41.4 µM; in the test on NCI-H23 lung, 45.2 µM. Further, the GI50 in the test with NCI-H460 lung is 48 µM; in the test with RXF 393 renal, 68.5 µM; in the test on SF-295 CNS it was 36.5 µM. Also, the TGI in the test with A498 renal was over 100 µM; in the test with HCC-2998 colon it was over 100 µM; in the test on LOX IMVI melanoma it was over 100 µM; in the test on MALME-3M melanoma, 30.9 µM; in the test on MDA-MB-435 it was over 100 µM; in the test on NCI-H23 lung, over 100 µM. In addition, the TGI in the test with NCI-H460 lung, with RXF 393 renal and in the test with SF-295 CNS was over 100 µM in each case.
